Read-outs that look alike come from different tables or passages of the source. Ends that are not written are not given here.
Legend:
[1] = test system: fusion of HIV-1 gp120-41 expressing TF228 cells with CD4+CXCR4+3T3 mouse fibroblasts; experiment: Dye transfer fusion assay (cell-cell fusion); type: cell-based; settings: for inhibition of HIV-1 mediated cell-cell fusion: dye transfer, co-culture 2 hours at 37° C.; for inhibition compared with the wild-type peptide: dye transfer fusion assay
Method: Peptide inhibition of cell-cell fusion was assayed by monitoring the redistribution of two fluorescent probes: a water-soluble probe and a lipophilic probe, between target and effector cells upon their co-incubation with these probes (Munoz-Barroso I., et al., 1998, J. Cell Biol. 140: 315-323). The HIV-1 gp120-41 expressing TF228 cells (Jonak, Z. L., et al., 1993, AIDS Res. Hum. Retrovir. 9:23-32) were labeled with either calcein or a green fluorescent fatty acid as follows: HIV-1 gp120-41 expressing TF228 cells were incubated with 1 μM calcein for 60 minutes at 37° C., and then washed and resuspended at 10^5 cells/ml in RPMI medium. Alternatively, the HIV-1 gp120-41 expressing TF228 cells were labeled with the fatty acid 4,4-difluoro-5-methyl-4-bora-3a, 4a-diaza-s-indacene-3-dodecanoic acid (C1-BODIPY-C12; (Molecular Probes, Eugene, Oreg.)) as follows: HIV-1 gp120-41 expressing TF228 cells were seeded at 10^5 cells/ml in RPMI medium containing 10 mg/ml of the C1-BODIPY-C12 and grown for three days prior to the experiment. The fatty acid was eventually metabolized into phospholipid, primarily phosphatidylcholine. The cells where then washed and resuspended at 10^5 cells/ml. The target cells, CD4+CXCR4+3T3 mouse fibroblasts, were plated at 10^5 cells/ml the night before the experiment. The next day, the CD4+CXCR4+3T3 cells were labeled with 20 μM [5-(and -6) ((4-Chloromethyl)benzoyl)amino)) tetramethylrhodamine (CMTMR) for one hour at 37° C., washed several times and combined with the effector cells (1:3 target-effector cell ratio). Different concentrations of peptides, dissolved in PBS or Tris buffer, were then added. The cells were co-cultured for 2 hours at 37° C. in 12 well plates (Costar, Cambridge, Mass.). Phase and fluorescent images were collected using an Olympus IX70 coupled to a CCD camera (Princeton Instruments, Trenton, N.J.) with a 20× objective lens. An 82000 optical filter cube (Chroma Technology Corp., Brattleboro, Vt.) was used for the excitation of calcein (494/517), BODIPY (500/510), and CMTMR (541/565). Three images per well were collected and then analyzed using metamorph software (Universal Imaging, WestChester, Pa.) for dye transfer from the donor to the acceptor cell. The scoring of fusion events was conducted as described by Munoz-Barroso et al. (ibid.).

[2] = biological target: wt-fusion peptide (N-terminal 33 segment of gp41) (Human immunodeficiency virus type 1 group M subtype B, UniProt P03377); settings: NBD-wt donor 0.05 μM, Rho acceptor 0.025-0.35 μM, SUV 400 μM
Method: The self-association of the peptides in their membrane-bound state was monitored by employing resonance energy transfer measurements. Fluorescence resonance energy transfer was measured using NBD-labeled peptides serving as donors and Rho (rhodamine)-labeled peptides serving as energy acceptors. Fluorescence spectra were obtained at room temperature with excitation set at 467 nm using a 10 nm slit width. In a typical experiment, donor peptide (final concentration 0.04 μM) was added to a dispersion of phosphatidylcholine/cholesterol (PC/Chol; 10:1 w/w) small unilamellar vesicles (SUV; 224 μM) in PBS, followed by the addition of acceptor peptide in several sequential doses. Fluorescence spectra were obtained before and after addition of the acceptor. The efficiency of energy transfer (E) was determined by measuring the decrease in the quantum yield of the donor as a result of the presence of acceptor. E was determined experimentally from the ratio of the fluorescence intensities of the donor in the presence (Ida) and in the absence (Id) of the acceptor, at the donor's maximum emission wavelength. The percentage of transfer efficiency (E), is given by:
The contribution of buffer and vesicles was subtracted from all measurements. […] The acceptor-peptide was added only after the donor-peptide was already bound to the membrane, thus decreasing association in solution. […]

activated T-cells = experiment: Binding of NBD-labeled fusion peptides to T-cells (confocal fluorescence microscopy); type: cell-based; design: dose or concentration left out as unconfirmed; settings: 30 minutes, room temperature
Method: Nitrobenzofurazane (NBD)-labeled wt-fusion peptide or NBD-labeled diastereomeric fusion peptide (herein designated IFFA) were studied for their binding to activated T-cells as follows: Activated T-cells (10,000/ml) were incubated for 30 minutes at room temperature with NBD labeled wt- or IFFA-fusion peptides (0.5 mM final concentration). The cells were washed twice with PBS (100 ml) in order to remove excess of unbound peptide. The cells were then observed under the fluorescent confocal microscope. NBD excitation was at 488 nm with the laser set at 2% power to prevent bleaching of the fluorophore. Fluorescence data was collected from 525 nm and up.

wt-GPA = biological target: T1, wt-GPA (Homo sapiens, UniProt P02724); experiment: FRET between wt-GPA and diastereomer in LUV; type: binding; settings: donor 0.1 μM, acceptor 0.01-0.05 μM, LUV 340 μM
T1 construct: ITLIIFGVMAGVIGT; fluorophore label (NBD); made in house; host or cells: chemical peptide synthesis
Method: Wild type (wt)-GPA and the 2D-GPA analog were synthetically labeled with Rhodamine and NBD, respectively, and fluorescent resonance energy transfer (FRET) experiments were performed with NBD-labeled peptides serving as energy donors and Rhodamine-labeled peptides serving as energy acceptors. […] In a typical experiment, a donor peptide (final concentration 0.1 μM) was added to a dispersion of large unilamellar vesicles (LUV; 340 μM) in PBS. This was followed by the addition of an acceptor peptide in increasing doses ranging from 0.01 to 0.05 μM. At this peptide to lipid ratios, complete membrane binding is expected for all the transmembrane peptides. […] The percentage of transfer efficiency (E), is given by:
The R0 for this pair of donor-acceptor fluorophores is around 51 Å.

[3] = test system: ToxR GPA (GPA transmembrane domain); experiment: ToxR GPA heterodimer formation (β-galactosidase reporter); type: cell-based
Method: The ToxR GPA plasmid construct is a simple and robust method for detecting homodimerization of transmembrane domains in vivo (Langosch, D., et al., 1996, J. Mol. Biol. 263: 525-530). The detection is done through the signal of a β-galactosidase reporter gene. Heterodimerization can be detected through addition of an exogenous peptide. […] The 2D-GPA peptide of SEQ ID NO:11 was exogenously added to the system in increasing doses (0.5-20 μM; FIG. 5). […] The inhibition was calculated as follows: I is the inhibitory ability of the peptide, Apeptide is the activity of ToxR-GPA in the presence of the peptide, Amax is the maximal activity of ToxR-GPA without peptide, and Abaseline is the baseline activity of the monomer A16 plasmid, a plasmid containing a peptide which consists of 16 amino acids all of which are alanine (Langosch, D., et al., 1996, J. Mol. Biol. 263: 525-530).
IC50 was calculated by fitting normalized data to the Langmuir equation (equation 3) in the Origin 6.0 commercial program.
Were A represents ToxR-GPA transcription factor, B represents the exogenous peptide, I represents inhibition of beta-galactosidase activity (1-activity) and K is a scaling constant.

FHK12 bacterial membrane = experiment: Binding of NBD labeled peptide to bacterial membrane (confocal); type: cell-based; settings: NBD labeled peptide 500 nM
Method: The binding of 2D-GPA to the membrane of the FHK12 bacteria is a prerequisite for the interaction between the peptide and the GPA ToxR construct. In order to verify this binding, the bacteria were observed under a confocal microscope in the absence or presence of a NBD labeled 2D-GPA peptide at a 500 nM concentration. Experiments were done as follows: FHK12 bacteria were diluted 1:10000 and incubated with NBD labeled 2D-GPA, final concentration of 500 nM, for 30 seconds. Samples were fixed with Glutaraldehyde at a final concentration of 0.001% for 30 seconds, centrifuged and washed 3 times with fresh PBS. Confocal images were obtained using an Olympus IX70 FV500 confocal laser-scanning microscope. […] The confocal images were obtained at 12-bit resolution.

[4] = test system: ToxR GPA construct in FHK12 bacteria; experiment: ToxR receptor expression levels (Western blot); type: cell-based; settings: anti maltose binding protein
Method: Bacteria FHK12 cells were grown in the presence or absence of 2D-GPA, 10 μl samples were added to 2× sample buffer and boiled for 5 minutes. The samples were separated on a 12% SDS-PAGE and thereafter were blotted. The primary antibody used was anti maltose binding protein. The detection was performed with Phototope-HRP Western Blot Detection System (Cell Signaling Technology, MA, USA).

[5] = test system: Tar-1 TM domain (ToxR-MalE chimera); settings: different concentrations of exogenous peptide, FIG. 9
Excerpt: The ToxR transcription activator can be used successfully to assess weak protein-protein interactions within the E. coli membrane. A Tar-1 TM domain encoding the DNA cassette was grafted between the ToxR transcription activator and the maltose binding protein in the ToxR-MalE plasmid. The plasmid was then transformed into E. coli FHK12 cells, which contain β-galactosidase, under the control of a ctx promoter. Dimerization of the TM domains, in this system, results in association and activation of the ToxR transcription activator, which then becomes active and is able to bind the ctx promoter. Quantification of the amount of homo-dimerization was done by measuring the activity of the β-galactosidase reporter gene and by normalizing it to the cell content (OD590) (miller units)
The ability of the Tar-1 peptides to disrupt the proper dimerization of the wild-type transmembrane (TM) domain was thus investigated by using the ToxR system. This TM assembly system can assess the dimerization of a specific TM domain grafted between the ToxR transcription activator and the maltose binding protein, MalE. […] The TM-TM interactions were monitored by measuring the activity of β-galactosidase in the presence of different concentrations of exogenous Tar-1 analog peptides.

Tar-1 all-L NBD peptide = Tar-1 all-L NBD peptide (Escherichia coli, UniProt P07017); settings: donor Tar-1 all-L NBD peptide; acceptor-to-lipid ratio of 1:7500; PE/PG SUV
Method: To investigate the direct interaction between the two enantiomers of Tar-1 in an isolated in vitro system, fluorescence energy transfer (FRET) between fluorescently labeled Tar-1 wild-type peptide and its diastereomeric analog was measured. The assay was performed in a model lipid environment of small unilamellar vesicles (SUV) composed of negatively charged PE/PG lipids (7:3 w/w). This phospholipid composition is typical of the E. coli inner membrane. The Tar-1 peptides were labeled with NBD as the donor fluorophore or rhodamine-TAMRA as the acceptor fluorophore, and FRET was measured.

[6] = test system: HIV1 gp41 mediated viral fusion; settings: literature; cited from earlier work

For `O=C(N[C@H](CO)[C@H](O)c1ccc([N+](=O)[O-])cc1)C(Cl)Cl` [chloramphenicol], the “cell density (growth) of the bacteria” value (CP362 containing pNT201) was “zero growth”.

With “AVGIGALF [8-mer wild-type control peptide, reference compound]” the “inhibition of HIV-1 mediated cell-cell fusion” value [1] was “completely devoid of inhibitory effect”.

For AVGIGALFLGFLG [reference compound], the “inhibition of HIV-1 mediated cell-cell fusion” value [1] was “completely devoid of inhibitory activity”.

With “AVGIGALFLGFLGAAGSTMGARSMTLTVQARQL [IFFA]” the “concentration showing significant inhibitory effect on cell-fusion” value ([1]; FIG. 2) was 10 ng/mL, the “inhibition compared with the wild-type peptide” value [1] was “identical to that of the wild-type (wt) fusion peptide” and the “association with wt-fusion peptide (energy transfer)” value [2] was “associate with the wt-fusion peptide”.

With “AVGIGALFLGFLGAAGSTMGARSMTLTVQARQL [wt-fusion peptide]” the “binding to T-cells” value (activated T-cells) was “high affinity binding to T-cells”.

In the case of D-L^669, W^670-DP178 [[D-LW]-DP178], the “inhibition compared with the wild-type peptide” value [1] is reported as “more active than the wild-type DP178” and the “inhibition of HIV-1 mediated cell-cell fusion” value [1] is reported as “inhibited the fusion”.

In the case of D-S^649, Q^650-DP178 [[D-SQ]-DP178], the “inhibition of HIV-1 mediated cell-cell fusion” value [1] is reported as “completely inactive”.

For “FFGAVIGTIALGVATSAQITAGIALAEAREAKR [fusion peptide of Sendai virus, reference compound]”, the “inhibition of HIV-1 mediated cell-cell fusion” value [1] was “completely devoid of inhibitory activity”.

In the case of “ITLIIFGVMAGVIGT [2D-GPA, GPA transmembrane domain analog, L-valines at positions 80 and 84 replaced by their D-enantiomer]”, the “fluorescence energy transfer with wt-GPA” value (wt-GPA) is reported as “fluorescence energy transfer increased”, the “inhibition of ToxR GPA homodimer signal” value ([3]; exogenous peptide 0.5-20 μM) is reported as “concentration dependent inhibitory effect” and the IC50 ([3]; extrapolated from the fit to Langmuir equation, read-out: IC50 of the interaction with the integral GPA transmembrane domain) is reported as 290 nM. For the same molecule, the “localization in FHK12 bacteria” value (FHK12 bacterial membrane) was “localized in the bacterial membrane” and the “effect on expression levels of the ToxR GPA construct” value [4] was “no significant differences were detected”.

For “KKITLIIFGVMAGVIGT (also: D-amino acids, which not given here) [SEQ ID NO:12, another diastereomeric GPA peptide]”, the “effect on expression levels of the ToxR GPA construct” value [4] was “did not affect the expression levels”.

“KKITLIIFGVMAGVIGT [all L GPA, reference compound]” showed an IC50 ([3]; previous all L and all D GPA results fitted to this model, read-out: IC50 of the interaction with the GPA transmembrane domain) of 360 nM.

For “KKKMVLGVFALLQLISGSLKK (KKKMVLGVFALLQLISGSLKK-NH2; also: D-amino acids, which not given here) [Tar-1 diastereomer]”, the “inhibition of Tar-1 TM domain dimerization (β-galactosidase activity)” value [5] was “interfered with the proper dimerization” and the energy transfer (Tar-1 all-L NBD peptide) was “about 30%”.

With “KKKMVLGVFALLQLISGSLKK [Tar-1 all-L, reference compound]” the “inhibition of Tar-1 TM domain dimerization (β-galactosidase activity)” value ([5]; listed as Tar-1 all-L peptide) was “inhibition profile similar to its diastereomeric counterpart”.

For enfuvirtide, the “inhibition of viral fusion” value [6] is listed as “competent inhibitors of viral fusion”.
